The term IC50 denotes the point on the concentration scale where inhibition reaches its midpoint.

Data set [1] concerns L. donovani. Also on record: method as in ref 45 (Wyllie et al.). The following applies: Figure 10; ref 45 (Wyllie et al.); cited from earlier work.
Data set [2] relates to THP-1. Details: method as in ref 45 (Wyllie et al.). The conditions noted are these: Figure 10; ref 45 (Wyllie et al.); cited from earlier work.
The test system of data set [3] is L. donovani. Also on record: method as in ref 44 (Khare et al.). The conditions noted are these: Figure 10; ref 44 (Khare et al.); cited from earlier work.
Data set [4] deals with L. infantum (MHOM/BR/2002/LPC-RPV) promastigotes. Description: In vitro antileishmanial activity against promastigotes (resazurin). Type of data set: cell-based, Leishmania infantum. The following applies: 48 h at 28 °C, three independent experiments. The protocol:
(§1) L. infantum (MHOM/BR/2002/LPC-RPV) promastigotes were maintained in Schneider’s medium supplemented with 10% (v/v) fetal bovine serum (FBS, Gibco) and 100 U/mL penicillin and 100 μg/mL streptomycin at 28 °C. MRC-5 human primary fetal lung fibroblast cells were maintained in RPMI 1640 medium supplemented with 10% heat-inactivated fetal calf serum (FCS) and 25 mM HEPES under a 5% CO2 atmosphere at 37 °C and pH 7.4.
To evaluate the effect of prioritized compounds on parasite viability, 4 × 10^6 promastigotes/mL were incubated in the presence of a series of 11 points from 200–0.195 or 50–0.04 μM plus control (0.1% DMSO) for 48 h at 28 °C to a final volume of 200 μL in 96-well microplate. Next, 20 μL of resazurin solution (0.39 mM) was added to each well and incubated for 4 h, and then fluorescence was recorded (570 nmex/595 nmem) on a microplate reader SpectraMax M5 (Molecular Devices, Sunnyvale, CA). The IC50 from three independent experiments was calculated from the dose–response curve fitted in a four-parameter logistic, nonlinear regression model using GraphPad Prism software (CA) v.8.
A general note: The colour change of resazurin is a common sign of viable cells or microbes.

Data set [5] can be described thus: In vitro cytotoxicity test on MRC-5 cells (resazurin). The class given is cell-based, human. The conditions noted are these: human, MRC-5 primary fetal lung fibroblast cells, pH 7.4, MRC-5 cells, 72 h incubation, resazurin; two independent experiments. The method, then: as §1
(§2) MRC-5 cells were seeded in 96-well plates at a density of 1 × 10^4 cells/well using 100 μL of medium. After 24 h, compounds were serially diluted in another set of 96-well plates starting from a concentration of 250 μM (11 dilution points plus the control), using 100 μL of complete culture medium per well. Subsequently, 100 μL of these diluted compounds were transferred to the seeded cells. Amphotericin B (Sigma-Aldrich) dissolved in DMSO was used as a control and diluted from an initial concentration of 0.5 μM. After 72 h of incubation, resazurin was added to a final concentration of 45 μM and incubated for 4 h before measuring fluorescence.

The test system of data set [6] is MRC-5 human primary fetal lung fibroblast cells. The description is as above. The class given is cell-based. The conditions noted are these: for SI (selectivity index): ratio of CC50 (MRC-5) to IC50 (L. infantum). The protocol: as §1, §2
Data set [7] deals with 3T3. Details: method as in ref 44 (Khare et al.). The conditions noted are these: Figure 10; ref 44 (Khare et al.); cited from earlier work.
Data set [8] relates to macrophage. Details: method as in ref 44 (Khare et al.). The conditions noted are these: Figure 10; ref 44 (Khare et al.); cited from earlier work.

Like-named read-outs stand apart in the source and are kept apart here. Bounds are passed on as bounds.

As for `O=C(Nc1ccc(F)c(-c2cn3nc(-c4ccccc4)cnc3n2)c1)N1CCCC1` [compound 7], in data set [1], the IC50 is 0.35 µM. The CC50 in data set [2] was > 50 µM.
Regarding `Cc1nc(C)c(C(=O)Nc2ccc(F)c(-c3nc4ncc(-c5ccccn5)cn4n3)c2)o1` [GNF6702], in data set [3], the concentration for half-maximal inhibition (IC50) was 0.0018 µM.
Take `O=C(Nc1ccc(F)c(-c2cn3cc(-c4ccccc4)cnc3n2)c1)N1CCCC1` [compound 6]: the IC50 in data set [1] is 0.15 µM. In data set [2], the CC50 was > 50 µM.
As to `Cc1nc(O)cc(C2CCN(c3nccc(-c4ccccn4)n3)CC2)n1` [LC-27], the IC50 in data set [4] (Leishmania infantum, 48 h) is > 100 µM.
The compound `C[C@@H]1[C@H](O)[C@@H](C)/C=C/C=C/C=C/C=C/C=C/C=C/C=C/[C@H](O[C@@H]2O[C@H](C)[C@@H](O)[C@H](N)[C@@H]2O)C[C@@H]2O[C@](O)(C[C@@H](O)C[C@@H](O)[C@H](O)CC[C@@H](O)C[C@@H](O)CC(=O)O[C@H]1C)C[C@H](O)[C@H]2C(=O)O` [Amphotericin B, reference compound] had an IC50 in data set [4] (Leishmania infantum, 48 h) of 0.079 ± 0.001 µM. In data set [5], the CC50 at 72 h is > 0.67 µM.
With `Cc1cc(NCc2ccncc2C)nc(N2CCCCC2)n1` [LC-20], the IC50 in data set [4] (Leishmania infantum, 48 h) was > 100 µM.
Take `O=C(Nc1ccc(Cl)c(-c2nc3ncccc3o2)c1)c1cccs1` [LC-15]: the IC50 is 1.05 ± 0.37 µM in data set [4] and 1.5 µM in data set [4] (Leishmania infantum, 48 h). The CC50 in data set [6] (MRC-5 cells, 72 h incubation, resazurin, two independent experiments) was determined as 32.4 ± 8.31 µM. In data set [6], the “SI (selectivity index)” value is listed as 30.9. Also, the CC50 at 72 h in data set [5] was > 32.4 µM.
In data set [4] (Leishmania infantum, 48 h), `Cc1ccc(C2CC(=O)Nc3c2c(C)nn3-c2nc(C)cc(C)n2)cc1` (centres unmarked) [LC-37] displayed an IC50 of 15.6 ± 2.36 µM. For the same compound, in data set [6], the “SI (selectivity index)” value is listed as >15.9. Also, the CC50 at 72 h in data set [5] is > 250 µM.
As to `CC(=O)Nc1ccc(S(=O)(=O)Nc2cc(C)nn2-c2ccccn2)cc1` [LC-38], in data set [4] (Leishmania infantum, 48 h), the IC50 is > 100 µM.
`CN1CCC(Nc2nccc(-c3ccccn3)n2)C(Cc2ccccc2)C1` (centres unmarked) [LC-26]: in data set [4] (Leishmania infantum, 48 h), the IC50 worked out at 11.9 ± 1.7 µM. The same compound returned a CC50 at 72 h in data set [5] of 48.4 ± 16.9 µM.
For `Cc1nc2ccc(Cl)cn2c1C(=O)N1CCCC1c1ccccn1` (centres unmarked) [LC-25], the IC50 in data set [4] (Leishmania infantum, 48 h) is > 100 µM.
In data set [4] (Leishmania infantum, 48 h), `Fc1ccc(OCc2nc3cc(Cl)ccc3[nH]2)cc1` [LC-31] displayed an IC50 of 4.51 ± 2.25 µM. In addition, the “SI (selectivity index)” value in data set [6] is listed as 9.04. The CC50 at 72 h in data set [5] came out at 40.7 ± 4.33 µM.
In the case of `Cc1nc(C)c(C(=O)Nc2ccc(F)c(-c3nc4ncc(-c5ccccc5)cn4n3)c2)o1` [GNF3849], in data set [3], the IC50 was 0.071 µM.
For `Cc1cc(C)nc(-n2nc(C)c3c2NC(=O)CC3c2ccc3c(c2)OCO3)n1` (centres unmarked) [LC-35], inhibition in data set [4] (Leishmania infantum, 48 h) was half-maximal at 17.1 ± 2.89 µM (IC50). Further, the “SI (selectivity index)” value in data set [6] came out at 8.47. Moreover, the CC50 at 72 h in data set [5] is 145 ± 21.8 µM.
Take `O=C(Nc1cccnc1Cl)c1cc(-c2ccc3c(c2)OCO3)on1` [LC-36]: the IC50 in data set [4] (Leishmania infantum, 48 h) is > 100 µM.
In the case of `CC(C)OC(=O)Nc1cnc2nc(-c3cc(NC(=O)c4ccco4)ccc3Cl)cn2c1` [GNF2636], the CC50 was 3.5 µM in data set [7] and 14.1 µM in data set [8]. Also, the IC50 in data set [3] was 0.35 µM.

These data come from PMC11696749, “Deep Multitask Learning-Driven Discovery of New Compounds Targeting Leishmania infantum” (ACS Omega, 2024).
